# Measured values published in PubChem BioAssay AID1963846 (Molecular Pharmacology Branch, DTP, NCI, 2024).
# Test system: 454973-116-R2-J3-PDC complex spheroid viability
# Experiment: Anticancer human tumor 454973-116-R2-J3-PDC patient-derived pancreatic carcinoma cell line growth inhibition [POLQ]
# Conditions: for IC50: curve of first compound; for viability, T/C: stronger effect = lower value
# Outline: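 Three-cell-type spheroids modelling solid tumor plus stroma served as the readout system; POL inhibitors were tested individually and in combination, concentration ranges set by clinical Cmax where known.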
# [1] = second compound 0.0316 µM, first compound 0.00316 µM
# [2] = second compound 0.0316 µM, first compound 0.01 µM
# [3] = second compound 0.0316 µM, first compound 0.0316 µM
# [4] = second compound 0.0316 µM, first compound 0.1 µM
# [5] = second compound 0.0316 µM, first compound 0.316 µM
# [6] = second compound 0.0316 µM, first compound 1 µM
# [7] = second compound 0.1 µM, first compound 0.00316 µM
# [8] = second compound 0.1 µM, first compound 0.01 µM
# [9] = second compound 0.1 µM, first compound 0.0316 µM
# [10] = second compound 0.1 µM, first compound 0.1 µM
# [11] = second compound 0.1 µM, first compound 0.316 µM
# [12] = second compound 0.1 µM, first compound 1 µM
# [13] = second compound 0.316 µM, first compound 0.00316 µM
# [14] = second compound 0.316 µM, first compound 0.01 µM
# [15] = second compound 0.316 µM, first compound 0.0316 µM
# [16] = second compound 0.316 µM, first compound 0.1 µM
# [17] = second compound 0.316 µM, first compound 0.316 µM
# [18] = second compound 0.316 µM, first compound 1 µM
# [19] = second compound 1 µM, first compound 0.00316 µM
# [20] = second compound 1 µM, first compound 0.01 µM
# [21] = second compound 1 µM, first compound 0.0316 µM
# [22] = second compound 1 µM, first compound 0.1 µM
# [23] = second compound 1 µM, first compound 0.316 µM
# [24] = second compound 1 µM, first compound 1 µM
# [25] = second compound 3.16 µM, first compound 0.00316 µM
# [26] = second compound 3.16 µM, first compound 0.01 µM
# [27] = second compound 3.16 µM, first compound 0.0316 µM
# [28] = second compound 3.16 µM, first compound 0.1 µM
# [29] = second compound 3.16 µM, first compound 0.316 µM
# [30] = second compound 3.16 µM, first compound 1 µM
# [31] = second compound 10 µM, first compound 0.00316 µM
# [32] = second compound 10 µM, first compound 0.01 µM
# [33] = second compound 10 µM, first compound 0.0316 µM
# [34] = second compound 10 µM, first compound 0.1 µM
# [35] = second compound 10 µM, first compound 0.316 µM
# [36] = second compound 10 µM, first compound 1 µM
# 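Also: spheroids exposed to drugs for seven days before measurement.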
# 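For viability, T/C in this document: percent viability relative to DMSO vehicle control wells taken as 100%.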
smiles,measurement,setting,value
C=CCn1c(=O)c2cnc(Nc3ccc(N4CCN(C)CC4)cc3)nc2n1-c1cccc(C(C)(C)O)n1 + Nc1ccc(C#CCN(C(=O)Cc2ncc(C(F)(F)F)cc2C(F)(F)F)c2ccc(F)cc2)nn1,IC50,second compound 0.0316 µM,455 nM
same,IC50,second compound 0.1 µM,451 nM
same,IC50,second compound 0.316 µM,515 nM
same,IC50,second compound 1 µM,408 nM
same,IC50,second compound 3.16 µM,475 nM
same,IC50,second compound 10 µM,423 nM
same,"viability, T/C",[1],108%
same,"viability, T/C",[2],100%
same,"viability, T/C",[3],104%
same,"viability, T/C",[4],99%
same,"viability, T/C",[5],68.7%
same,"viability, T/C",[6],9.62%
same,"viability, T/C",[7],106%
same,"viability, T/C",[8],102%
same,"viability, T/C",[9],102%
same,"viability, T/C",[10],104%
same,"viability, T/C",[11],68.5%
same,"viability, T/C",[12],8.41%
same,"viability, T/C",[13],99.3%
same,"viability, T/C",[14],109%
same,"viability, T/C",[15],106%
same,"viability, T/C",[16],107%
same,"viability, T/C",[17],79.3%
same,"viability, T/C",[18],10.2%
same,"viability, T/C",[19],105%
same,"viability, T/C",[20],101%
same,"viability, T/C",[21],114%
same,"viability, T/C",[22],114%
same,"viability, T/C",[23],62.3%
same,"viability, T/C",[24],6.99%
same,"viability, T/C",[25],105%
same,"viability, T/C",[26],114%
same,"viability, T/C",[27],115%
same,"viability, T/C",[28],114%
same,"viability, T/C",[29],72.7%
same,"viability, T/C",[30],8.66%
same,"viability, T/C",[31],116%
same,"viability, T/C",[32],116%
same,"viability, T/C",[33],129%
same,"viability, T/C",[34],112%
same,"viability, T/C",[35],65%
same,"viability, T/C",[36],6.21%
CC[C@@]1(O)C(=O)OCc2c1cc1n(c2=O)Cc2cc3c(CN(C)C)c(O)ccc3nc2-1 + Nc1ccc(C#CCN(C(=O)Cc2ncc(C(F)(F)F)cc2C(F)(F)F)c2ccc(F)cc2)nn1,IC50,second compound 0.0316 µM,15.7 nM
same,IC50,second compound 0.1 µM,15.8 nM
same,IC50,second compound 0.316 µM,15 nM
same,IC50,second compound 1 µM,15.6 nM
same,IC50,second compound 3.16 µM,16.1 nM
same,IC50,second compound 10 µM,17.2 nM
same,"viability, T/C","second compound 0.0316 µM, first compound 0.000316 µM",105%
same,"viability, T/C","second compound 0.0316 µM, first compound 0.001 µM",106%
same,"viability, T/C",[1],98.9%
same,"viability, T/C",[2],73.7%
same,"viability, T/C",[3],13.2%
same,"viability, T/C",[4],10.1%
same,"viability, T/C","second compound 0.1 µM, first compound 0.000316 µM",107%
same,"viability, T/C","second compound 0.1 µM, first compound 0.001 µM",104%
same,"viability, T/C",[7],97.3%
same,"viability, T/C",[8],73.2%
same,"viability, T/C",[9],14.2%
same,"viability, T/C",[10],10.4%
same,"viability, T/C","second compound 0.316 µM, first compound 0.000316 µM",106%
same,"viability, T/C","second compound 0.316 µM, first compound 0.001 µM",102%
same,"viability, T/C",[13],107%
same,"viability, T/C",[14],71.2%
same,"viability, T/C",[15],10.7%
same,"viability, T/C",[16],12.3%
same,"viability, T/C","second compound 1 µM, first compound 0.000316 µM",111%
same,"viability, T/C","second compound 1 µM, first compound 0.001 µM",110%
same,"viability, T/C",[19],94.5%
same,"viability, T/C",[20],73.2%
same,"viability, T/C",[21],13.2%
same,"viability, T/C",[22],12.3%
same,"viability, T/C","second compound 3.16 µM, first compound 0.000316 µM",111%
same,"viability, T/C","second compound 3.16 µM, first compound 0.001 µM",113%
same,"viability, T/C",[25],98.7%
same,"viability, T/C",[26],76.5%
same,"viability, T/C",[27],11.9%
same,"viability, T/C",[28],10.3%
same,"viability, T/C","second compound 10 µM, first compound 0.000316 µM",122%
same,"viability, T/C","second compound 10 µM, first compound 0.001 µM",110%
same,"viability, T/C",[31],104%
same,"viability, T/C",[32],86.1%
same,"viability, T/C",[33],8.55%
same,"viability, T/C",[34],9.22%
CCc1c2c(nc3ccc(O)cc13)-c1cc3c(c(=O)n1C2)COC(=O)[C@]3(O)CC + Nc1ccc(C#CCN(C(=O)Cc2ncc(C(F)(F)F)cc2C(F)(F)F)c2ccc(F)cc2)nn1,IC50,second compound 0.0316 µM,< 3.16 nM
same,IC50,second compound 0.1 µM,< 3.16 nM
same,IC50,second compound 0.316 µM,< 3.16 nM
same,IC50,second compound 1 µM,< 3.16 nM
same,IC50,second compound 3.16 µM,< 3.16 nM
same,IC50,second compound 10 µM,< 3.16 nM
same,"viability, T/C",[1],25.3%
same,"viability, T/C",[2],11.3%
same,"viability, T/C",[3],6.56%
same,"viability, T/C",[4],4.56%
same,"viability, T/C",[5],1.97%
same,"viability, T/C",[6],1.11%
same,"viability, T/C",[7],19%
same,"viability, T/C",[8],10.4%
same,"viability, T/C",[9],6.53%
same,"viability, T/C",[10],3.88%
same,"viability, T/C",[11],2.75%
same,"viability, T/C",[12],1%
same,"viability, T/C",[13],19.8%
same,"viability, T/C",[14],11.3%
same,"viability, T/C",[15],8.55%
same,"viability, T/C",[16],4.38%
same,"viability, T/C",[17],2.3%
same,"viability, T/C",[18],0.79%
same,"viability, T/C",[19],21.4%
same,"viability, T/C",[20],8.67%
same,"viability, T/C",[21],6.81%
same,"viability, T/C",[22],3.42%
same,"viability, T/C",[23],1.98%
same,"viability, T/C",[24],0.59%
same,"viability, T/C",[25],18.6%
same,"viability, T/C",[26],9.44%
same,"viability, T/C",[27],7.09%
same,"viability, T/C",[28],4.06%
same,"viability, T/C",[29],2.05%
same,"viability, T/C",[30],0.6%
same,"viability, T/C",[31],19%
same,"viability, T/C",[32],10.2%
same,"viability, T/C",[33],5.83%
same,"viability, T/C",[34],2.67%
same,"viability, T/C",[35],1.43%
same,"viability, T/C",[36],0.54%
CNCc1ccc(-c2[nH]c3cc(F)cc4c3c2CCNC4=O)cc1 + Nc1ccc(C#CCN(C(=O)Cc2ncc(C(F)(F)F)cc2C(F)(F)F)c2ccc(F)cc2)nn1,IC50,second compound 0.0316 µM,> 10000 nM
same,IC50,second compound 0.1 µM,> 10000 nM
same,IC50,second compound 0.316 µM,> 10000 nM
same,IC50,second compound 1 µM,> 10000 nM
same,IC50,second compound 3.16 µM,> 10000 nM
same,IC50,second compound 10 µM,> 10000 nM
same,"viability, T/C",[3],114%
same,"viability, T/C",[4],101%
same,"viability, T/C",[5],109%
same,"viability, T/C",[6],94.5%
same,"viability, T/C","second compound 0.0316 µM, first compound 3.16 µM",104%
same,"viability, T/C","second compound 0.0316 µM, first compound 10 µM",91.9%
same,"viability, T/C",[9],103%
same,"viability, T/C",[10],96.2%
same,"viability, T/C",[11],95.8%
same,"viability, T/C",[12],90.3%
same,"viability, T/C","second compound 0.1 µM, first compound 3.16 µM",98.2%
same,"viability, T/C","second compound 0.1 µM, first compound 10 µM",95.4%
same,"viability, T/C",[15],105%
same,"viability, T/C",[16],100%
same,"viability, T/C",[17],105%
same,"viability, T/C",[18],95.6%
same,"viability, T/C","second compound 0.316 µM, first compound 3.16 µM",101%
same,"viability, T/C","second compound 0.316 µM, first compound 10 µM",95.9%
same,"viability, T/C",[21],110%
same,"viability, T/C",[22],106%
same,"viability, T/C",[23],106%
same,"viability, T/C",[24],108%
same,"viability, T/C","second compound 1 µM, first compound 3.16 µM",110%
same,"viability, T/C","second compound 1 µM, first compound 10 µM",91%
same,"viability, T/C",[27],113%
same,"viability, T/C",[28],115%
same,"viability, T/C",[29],108%
same,"viability, T/C",[30],98.7%
same,"viability, T/C","second compound 3.16 µM, first compound 3.16 µM",121%
same,"viability, T/C","second compound 3.16 µM, first compound 10 µM",90.6%
same,"viability, T/C",[33],116%
same,"viability, T/C",[34],102%
same,"viability, T/C",[35],112%
same,"viability, T/C",[36],117%
same,"viability, T/C","second compound 10 µM, first compound 3.16 µM",119%
same,"viability, T/C","second compound 10 µM, first compound 10 µM",85%
